Converted amounts (≈) assume the structure as drawn. “Also recorded” adds a separate entry of the source. Read-outs that look alike come from different tables or passages of the source. Ends that are not written are not given here. Peptide text beside a SMILES is read from it.

Test [1] has as its system S. aureus USA300. The experiment in a line: Propidium iodide membrane permeation. Type of test: cell-based, Staphylococcus aureus. How it is done: The membrane permeation experiment was performed as described with minor modifications (Wang, et al. (2005) J. Biol. Chem., 280:5803-5811). Serially diluted 10× peptides (10 μL each well) were created in 96-well microtiter plates. Propidium iodide (2 μL) at a fixed concentration of 20 μM were added to each well followed by 88 μL of the S. aureus USA300 culture (a final OD600˜0.1 in TSB media). The plate was incubated at 37° C. with continuous shaking at 100 rpm in a FLUOstar® Omega (BMG LABTECH, Cary, NC) microplate reader. The fluorescence from the plate was read every 5 minutes for a total duration of 2 hours with an excitation and emission wavelengths of 584 nm and 620 nm, respectively. Plots were made using average values of duplicated experiments with MARS software.
The experiment was performed as described previously with minor modifications (Mishra, et al. (2017) Acta Biomater., 49:316-328). Serially diluted 10× peptides (10 μL each well) were created in 96-well microtiter plates. Propidium iodide (2 μL) at a fixed concentration of 20 μM were added to each well followed by 88 μL of the S. aureus USA300 culture (a final OD600˜0.1 in TSB media or PBS). The plate was incubated at 37° C. with continuous shaking at 100 rpm in a FLUOstar® Omega (BMG LABTECH) microplate reader. The samples fluorescence was read at every 5 minutes for 24 cycles with an excitation and emission wavelengths of 584 nm and 620 nm, respectively. Plots generated using average values from the experiments using GraphPad Prism.

The test system of test [2] is K. pneumoniae E406-17. In words: microbe, parasite or virus in culture. Type of test: cell-based, Klebsiella pneumoniae. The conditions noted are these: read-out: MIC K. pneumoniae E406-17. On the procedure:
(§1) The antibacterial activity of peptides was evaluated using a standard broth microdilution protocol with minor modifications as described (Mishra, et al. (2012) J. Am. Chem. Soc., 134:12426-12429). In brief, logarithmic phase bacterial cultures (i.e., optical density at 600 nm≈0.5) were diluted to OD600 0.001 and partitioned into a 96-well polystyrene microplate at 90 μL per well. After treatment with 10 μL of peptide solutions two fold diluted to various concentrations, microplates were incubated at 37° C. overnight and read on a ChroMate® 4300 Microplate Reader at 630 nm (GMI, Ramsey, MN). […] To study the influence of medium conditions on the antimicrobial activity of peptides against S. aureus USA300, up to 200 mM sodium chloride (NaCl), 2 mM of calcium chloride, 5-10% of human serum, mouse plasma, fluid, or supernatants of tissue homogenates were included into the assays.
(§2) The bacterial strains used include the Gram-positive bacteria methicillin-resistant Staphylococcus aureus USA300, Enterococcus faecium V286-17 (VRE), S. aureus M838-17 (MRSA) and Gram-negative bacteria E. coli E423-17, E416-7 (ampC), P. aeruginosa E411-17, PA01, K. pneumoniae E406-17, ATCC13883, and A. baumannii B26-16. Bacteria were cultivated in tryptic soy broth (TSB) from BD Bioscience.
(§3) The antibacterial activity of peptides was evaluated using a standard broth microdilution protocol with minor modifications (Mishra, et al. (2017) Acta Biomater., 49:316-328). In brief, logarithmic phase bacterial cultures (i.e., optical density at 600 nm≈0.5) were diluted to 0.001 OD and aliquoted 90 μL per well into a 96-well polystyrene microplate. Added 10 μL peptides per well with various concentrations, plates were incubated at 37° C., overnight. Post incubation the plates are read at 630 nm using a ChroMate® Microplate Reader (GMI). […] To study the influence of medium conditions on the antimicrobial activity of peptides against S. aureus USA300 at different pHs (6.8, 7.2, and 8.0), 150 mM sodium chloride (NaCl), 5-10% of human serum, mouse plasma, and peritoneal fluid were included into the assays.

For test [3], the system named is A. baumannii B26-16. The experiment in a line: microbe, parasite or virus in culture. It is filed as cell-based, Acinetobacter baumannii. The settings on record: read-out: MIC A. baumannii B26-16. How it is done:
as §2, §3

Test [4] deals with E. faecium V286-17 (VRE). The experiment in a line: microbe, parasite or virus in culture. Type of test: cell-based, Enterococcus faecium. The conditions noted are these: read-out: MIC E. faecium V286-17 (VRE).
Text: (§4) The bacterial strains used include the Gram-positive strains Staphylococcus aureus USA300 LAC, S. epidermidis 1457, and Bacillus subtilis 168, as well as the Gram-negative isolates Escherichia coli K12 and Acinetobacter baumannii B2367-12. Additional, drug resistance strains include Gram-positive Enterococcus faecium V286-17 (VRE) and S. aureus M838-17 (MRSA) and Gram-negative E. coli E423-17, E. coli E416-17 (ampC), and P. aeruginosa E411-17. Bacteria were cultivated in tryptic soy broth (TSB) (BD Bioscience, MD).
as §1, §2, §3

For test [5], the system named is P. aeruginosa E411-17. In words: microbe, parasite or virus in culture. Type of test: cell-based, Pseudomonas aeruginosa. The settings on record: read-out: MIC P. aeruginosa E411-17.
Text: as §4, §1, §2, §3

Test [6] concerns E. coli E423-17. The experiment in a line: microbe, parasite or virus in culture. The settings on record: read-out: MIC E. coli E423-17. It is filed as cell-based, Escherichia coli.
Text: as §4, §1, §2, §3

Test [7] deals with S. aureus M838-17 (MRSA). The experiment in a line: microbe, parasite or virus in culture. Type of test: cell-based, Staphylococcus aureus. The settings on record: Staphylococcus aureus, MRSA; Table 7; by weight; read-out: MIC S. aureus M838-17 (MRSA). Summed up:
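Peptides were serially diluted two-fold against bacteria grown in tryptic soy broth to log phase (OD600 ≈0.5), then seeded at OD600 0.001. Plates were held overnight at 37° C and read at 630 nm. USA300 was also tested at pH 6.8, 7.2 and 8.0, with 150 mM NaCl or 5-10% serum, plasma or peritoneal fluid.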

Test [8] has as its system S. aureus USA300. The experiment in a line: microbe, parasite or virus in culture. It is filed as cell-based, Staphylococcus aureus. The conditions noted are these: for MIC: read-out: MIC S. aureus USA300 (MRSA). In a few lines:
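Broth microdilution: log-phase cultures in tryptic soy broth diluted to OD600 0.001, exposed to two-fold diluted peptides at 37° C overnight, growth read at 630 nm. Medium effects on S. aureus USA300 tested with up to 200 mM NaCl, 2 mM CaCl2, 5-10% human serum, mouse plasma, fluids or tissue homogenate supernatants.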

The test system of test [9] is S. aureus USA300. Type of test: in vivo, Staphylococcus aureus. The conditions noted are these: different tissues; single i.p. injection; positive control. How it is done: Female C57BL/6 mice (6 weeks old) were purchased from Charles River. After environment adaptation, mice were induced neutropenic by administering two doses of cyclophosphamide on day 1 (150 mg/kg) and Day 4 (100 mg/kg). This cyclophosphamide administration was skipped for experiments using non-neutropenic mice (i.e., normal mice). On day 5, mice were infected with S. aureus USA300 LAC (˜2×10^6 CFU per mouse) via intraperitoneal injection (i.p.). For the treatment groups, mice were i.p. treated 2 hours post infection with peptides at a single dose of 5 mg/kg. Both positive and negative controls were included. At the end of the experiments, all animals were sacrificed according to institutional guidelines. Organs, including spleen, lung, kidney, and liver, were harvested, weighed, placed in sterile PBS and stored on ice. Harvested animal organs were subsequently homogenized using homogenizer (Omni, Kennesaw, GA). Proper dilutions, especially for untreated control groups, were made to get countable colonies. Blood agar plates were then incubated overnight at 37° C. The bacteria grown on plates were enumerated and plotted using the Graph pad Prism software.
Female C57BL/6 or Balb/c mice (6 weeks old) were purchased from Charles River. The mice were induced neutropenic by administering two doses of cyclophosphamide on day 1 (150 mg/kg) and Day 4 (100 mg/kg). On day 5, mice were infected with S. aureus USA300 (˜2×10^6 CFU per mouse) or K. pneumoniae E406-17 (˜5×10^5 CFU per mouse) via intraperitoneal injection (i.p.). For the treatment groups, mice were i.p. or intravenous (i.v.) treated 2 hours post infection with peptides at a single dose of 5, 10, or 15 mg/kg. Both positive and negative controls are used. At the end of the experiments, all animals were sacrificed according to institutional guidelines. […] The CFU of each mouse was plotted as an individual point and error bars represent the deviation within the experimental group. * p<0.05 ** p<0.01, ***p<0.001 and NS represents no significance (determined by Mann-Whitney test).

For test [10] the following is noted: literature; cited from earlier work.
Test [11] deals with E. coli ATCC 25922. Type of test: cell-based, Escherichia coli. The conditions noted are these: ATCC 25922. Summed up:
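Peptides, serially diluted two-fold, were incubated overnight at 37 °C with E. coli ATCC 25922 from log-phase cultures adjusted to OD600 0.001. Turbidity at 630 nm served as the read-out in this broth microdilution format.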

Test [12] relates to K. pneumoniae ATCC 13883. Type of test: cell-based, Klebsiella pneumoniae. The conditions noted are these: ATCC 13883. In a few lines:
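Broth microdilution in tryptic soy broth: log-phase cultures (OD600 ≈0.5) diluted to OD600 0.001, given two-fold peptide dilutions, incubated overnight at 37° C. Growth read at 630 nm.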

[13] abbreviates: Klebsiella pneumoniae, E40617, Table 14.
Setting [14] is: Acinetobacter baumannii, B2616, Table 14.
The mark [15] stands for this setting: Enterococcus faecium, VRE, Table 7.
Setting [16] is: Enterococcus faecium, VRE, Table 14.
Where [17] appears, read: Pseudomonas aeruginosa, E41117, Table 14.
The mark [18] stands for this setting: Escherichia coli, E42317, Table 14.
Setting [19] is: Staphylococcus aureus, MRSA / USA300, Table 14.

With `CO[C@H]1/C=C/O[C@@]2(C)Oc3c(C)c(O)c4c(O)c(cc(O)c4c3C2=O)NC(=O)/C(C)=C\C=C\[C@H](C)[C@H](O)[C@@H](C)[C@@H](O)[C@@H](C)[C@H](OC(C)=O)[C@@H]1C` [Rifamycin, reference compound], the “Propidium iodide membrane permeation” value in [1] is given as “failed to permeate”. The MIC is greater than 8 µM in test [2] (setting [13]); greater than 8 µM in [3] (setting [14]); 12.5 µM (≈ 8.72 µg/mL) in test [4] (setting [15]); greater than 8 µM in [4] (setting [16]); greater than 8 µM in [5] (setting [17]); greater than 8 µM in [6] (setting [18]). The MIC in test [7] came out at 1.56 µM (≈ 1.09 µg/mL); in test [8] (setting [19]), 0.25 µM (≈ 0.174 µg/mL).

Consider `CCCCCCCCCC(=O)N[C@@H](Cc1c[nH]c2ccccc12)C(=O)N[C@H](CC(N)=O)C(=O)N[C@@H](CC(=O)O)C(=O)N[C@@H]1C(=O)NCC(=O)N[C@@H](CCCN)C(=O)N[C@@H](CC(=O)O)C(=O)N[C@H](C)C(=O)N[C@@H](CC(=O)O)C(=O)NCC(=O)N[C@H](CO)C(=O)N[C@@H]([C@H](C)CC(=O)O)C(=O)N[C@@H](CC(=O)c2ccccc2N)C(=O)O[C@@H]1C` [Daptomycin], for which the “Propidium iodide membrane permeation” value in [1] is reported as “fluorescence increase; also recorded: permeated bacterial membranes”. For the same compound, the MIC was greater than 8 µM in test [2] (setting [13]); greater than 8 µM in test [3] (setting [14]); 3.1 µM (≈ 5.02 µg/mL) in test [4] (setting [15]); 4 µM (≈ 6.48 µg/mL) in [4] (setting [16]); greater than 8 µM in test [5] (setting [17]); greater than 8 µM in test [6] (setting [18]). Moreover, the MIC stood at 0.78 µM (≈ 1.26 µg/mL) in test [7] and 4 µM (≈ 6.48 µg/mL) in test [8] (setting [19]). For the same compound, the “Decrease in bacterial burden” value in [9] is listed as 1-4 logs.

“RPDKPRPYLPRPRPPRPVR (not fully specified (C-terminus)) [Peptide A3-APO]”: in [10], the “In vivo outcome” value is on record as “showed in vivo efficacy”.

Regarding `CC[C@H](C)[C@H](NC(=O)[C@H](CCCCN)NC(=O)[C@H](CCCNC(=N)N)NC(=O)[C@H](CC(C)C)NC(=O)[C@H](Cc1c[nH]c2ccccc12)NC(=O)[C@H](Cc1c[nH]c2ccccc12)NC(=O)[C@@H](N)Cc1c[nH]c2ccccc12)C(=O)N[C@@H](Cc1c[nH]c2ccccc12)C(N)=O` [WW291, WWWLRKIW] (H-WWWLRKIW-NH2; N-terminus and C-terminus assumed), the “Propidium iodide membrane permeation” value in [1] is reported as “permeate bacterial membranes”. Moreover, the MIC in [2] (E406-17) is no less than 32 µM; in test [3] (B26-16) it was 16 µM (≈ 20.4 µg/mL); in [4] (V286-17 (VRE)), 4 µM (≈ 5.09 µg/mL); in [5] (E411-17), greater than 32 µM; in test [6] (E423-17), 8 µM (≈ 10.2 µg/mL); in [8] (USA300), 4 µM (≈ 5.09 µg/mL). Also, the “MIC E. coli ATCC 25922” value in [11] fell in the range of 6.2 to 12.5 µM. Also, the “MIC K. pneumoniae ATCC 13883” value in test [12] is 12.5 µM (≈ 15.9 µg/mL). The “MIC S. aureus USA 300” value in test [8] (USA300) is 3.1 µM (≈ 3.94 µg/mL).

With “GIGKFLKKAKKFGKAFVKILKK (not fully specified (C-terminus)) [MSI-78]”, in test [10], the “In vivo outcome” value is recorded as “failure”.

As to “ALWMTLLKKVLKAAAK (not fully specified (C-terminus)) [DS4(1-16)]”, the “In vivo outcome” value in [10] is reported as “failure”.

Values taken from US12173088B2, “Anti-microbial peptides” (priority 2018, dated 2024).
